pIC50: −log10 of the molar value. Like-named read-outs stand apart in the source and are kept apart here.
Tests used:
human TLR7 = molecular target: T1, human TLR7 (Homo sapiens, UniProt Q9NYK1); test: HEK-Blue hTLR7 SEAP reporter gene inhibition assay; type: cell-based; details: for IC50: HEK-Blue hTLR7 IC50 (µM); for pIC50: read-out: HEK-Blue hTLR7 IC50
T1 sequence (Q9NYK1 27-1049): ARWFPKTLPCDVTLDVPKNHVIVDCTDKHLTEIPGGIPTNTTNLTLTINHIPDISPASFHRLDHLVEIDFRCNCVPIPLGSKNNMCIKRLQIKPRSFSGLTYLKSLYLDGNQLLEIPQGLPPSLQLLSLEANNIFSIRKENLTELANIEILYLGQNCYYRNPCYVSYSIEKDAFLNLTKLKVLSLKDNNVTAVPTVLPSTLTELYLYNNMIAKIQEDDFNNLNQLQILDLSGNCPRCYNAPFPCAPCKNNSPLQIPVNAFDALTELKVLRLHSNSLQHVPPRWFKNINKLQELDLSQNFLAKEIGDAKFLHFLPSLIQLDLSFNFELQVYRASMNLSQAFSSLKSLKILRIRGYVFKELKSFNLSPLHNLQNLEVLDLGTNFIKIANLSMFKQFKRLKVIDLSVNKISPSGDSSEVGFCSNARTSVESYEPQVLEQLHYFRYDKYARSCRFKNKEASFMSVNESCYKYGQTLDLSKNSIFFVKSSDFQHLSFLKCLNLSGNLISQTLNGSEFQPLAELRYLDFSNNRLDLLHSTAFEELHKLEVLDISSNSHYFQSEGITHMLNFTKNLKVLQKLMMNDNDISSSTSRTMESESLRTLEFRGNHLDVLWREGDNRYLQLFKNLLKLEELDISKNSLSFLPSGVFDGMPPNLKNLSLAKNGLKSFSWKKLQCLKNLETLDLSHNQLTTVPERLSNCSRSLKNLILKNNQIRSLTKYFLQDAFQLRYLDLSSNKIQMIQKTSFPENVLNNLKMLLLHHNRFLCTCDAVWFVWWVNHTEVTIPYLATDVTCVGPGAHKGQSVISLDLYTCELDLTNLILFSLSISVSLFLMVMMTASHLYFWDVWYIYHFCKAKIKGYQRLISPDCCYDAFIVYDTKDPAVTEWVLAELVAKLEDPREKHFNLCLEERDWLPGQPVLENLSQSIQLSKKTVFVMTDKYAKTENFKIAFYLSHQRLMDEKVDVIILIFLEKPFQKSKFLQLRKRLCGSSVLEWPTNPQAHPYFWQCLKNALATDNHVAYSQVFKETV
Outline: (§1)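 SEAP read-out by Quanti-Blue after 20 h stimulation gave IC50 values. Stable hTLR7 or hTLR8 HEK-Blue cells were pretreated 15 min with compound at 0.001–36 µM final, then stimulated with 10 µM Gardiquimod (TLR7) or 10 µM TLR8 ligand.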

human TLR8 = molecular target: T2, human TLR8 (Homo sapiens, UniProt Q9NR97); test: HEK-Blue hTLR8 SEAP reporter gene inhibition assay; type: cell-based; details: for IC50: HEK-Blue hTLR8 IC50 (µM); for pIC50: read-out: HEK-Blue hTLR8 IC50
T2 construct: expressed in transfected cells
T2 sequence (Q9NR97 27-1041): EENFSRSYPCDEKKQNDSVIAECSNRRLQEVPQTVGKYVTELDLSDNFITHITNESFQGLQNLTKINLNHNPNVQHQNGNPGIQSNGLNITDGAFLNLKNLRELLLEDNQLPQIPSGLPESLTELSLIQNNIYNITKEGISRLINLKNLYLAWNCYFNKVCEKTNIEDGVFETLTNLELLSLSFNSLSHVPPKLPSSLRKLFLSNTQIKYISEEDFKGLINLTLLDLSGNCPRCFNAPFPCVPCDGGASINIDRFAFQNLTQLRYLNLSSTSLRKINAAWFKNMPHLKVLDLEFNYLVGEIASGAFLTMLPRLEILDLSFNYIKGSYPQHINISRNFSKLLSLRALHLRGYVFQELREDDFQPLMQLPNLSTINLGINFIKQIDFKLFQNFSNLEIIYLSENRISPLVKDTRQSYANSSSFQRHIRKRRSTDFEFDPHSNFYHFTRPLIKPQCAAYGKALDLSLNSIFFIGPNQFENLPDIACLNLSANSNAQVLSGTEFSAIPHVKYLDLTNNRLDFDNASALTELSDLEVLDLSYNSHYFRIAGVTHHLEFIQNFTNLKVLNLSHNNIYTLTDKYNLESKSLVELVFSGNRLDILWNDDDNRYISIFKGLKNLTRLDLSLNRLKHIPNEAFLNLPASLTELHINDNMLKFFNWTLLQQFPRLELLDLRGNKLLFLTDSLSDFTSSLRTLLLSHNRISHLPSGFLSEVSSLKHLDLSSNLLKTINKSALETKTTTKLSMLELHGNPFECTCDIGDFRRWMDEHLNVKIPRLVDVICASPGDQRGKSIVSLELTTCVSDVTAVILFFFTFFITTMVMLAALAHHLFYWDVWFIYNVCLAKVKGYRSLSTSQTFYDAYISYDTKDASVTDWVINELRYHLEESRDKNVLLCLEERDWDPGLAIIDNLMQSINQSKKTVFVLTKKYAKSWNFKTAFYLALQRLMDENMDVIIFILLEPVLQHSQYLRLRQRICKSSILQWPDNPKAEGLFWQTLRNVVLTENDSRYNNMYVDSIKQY
Outline: as §1

[1] = hTLR7 HEK-Blue cells, TLR7 ligand Gardiquimod 10 µM, 20 hours, SEAP by Quanti-blue, class symbols
[2] = hTLR8 HEK-Blue cells, TLR8 ligand 10 µM, 20 hours, SEAP by Quanti-blue, class symbols

Structure (SMILES) | pIC50 (human TLR7; [1]) | pIC50 (human TLR8; [2]) | other results
C[C@@H]1CN(c2ccc(C#N)n3ncc(F)c23)Cc2c3c(nn21)CN(CCC#N)[C@@H](C)C3 [Example I-129, 4-((4R,9S)-8-(2-cyanoethyl)-4,9-dimethyl-3,4,7,8,9,10-hexahydropyridine[3',4':3,4]pyrazole[1,5-a]pyrazine-2 (1 H)-yl)-3-fluoropyrazole [1,5-a] pyridine-7-nitrile] |  |  | IC50 (human TLR7): < 0.05 µM; IC50 (human TLR8): < 0.1 µM
C[C@@H]1CN(c2ccc(C#N)c3ncccc23)Cc2c3c(nn21)CN[C@@H](C)C3 [Example I-132, 5-((4R,9S)-4,9-dimethyl-3,4,7,8,9,10-hexahydropyrido[3',4':3,4]pyrazolo[1,5-a]pyrazin-2(1H)-yl)quinoline-8-carbonitrile] | > 7.30 | > 7.00 | 
C[C@@H]1CN(c2ccc(C#N)n3ncc(F)c23)Cc2c3c(nn21)CN(Cc1ccn[nH]1)[C@@H](C)C3 [Example I-134, 4-((4R,9S)-8-((1H-pyrazol-5-yl)methyl)-4,9-dimethyl-3,4,7,8,9,10-hexahydropyrido[3',4':3,4]pyrazolo[1,5-a]pyrazin-2(1H)-yl)-3-fluoropyrazolo[1,5-a]pyridine-7-carbonitrile] |  |  | pIC50 (human TLR7): > 7.30; pIC50 (human TLR8): > 7.00
C[C@@H]1CN(c2ccc(C#N)n3ncc(F)c23)Cc2c3c(nn21)CN(C1CC2(COC2)C1)[C@@H](C)C3 [Example I-135] |  |  | IC50 (human TLR7): < 0.05 µM; IC50 (human TLR8): < 0.1 µM
C[C@@H]1CN(c2ccc(C#N)n3ncc(F)c23)Cc2c3c(nn21)CN(CC(=O)N1CCC1)[C@@H](C)C3 [Example I-138, 4-((4R,9S)-8-(2-(azetidin-1-yl)-2-oxoethyl)-4,9-dimethyl-3,4,7,8,9,10-hexahydropyrido [3',4':3,4]pyrazolo[1,5-a]pyrazin-2(1H)-yl)-3-fluoropyrazolo[1,5-a]pyridine-7-carbonitrile] |  |  | pIC50 (human TLR7): > 7.30; pIC50 (human TLR8): < 7.00
C[C@@H]1CN(c2ccc(C#N)c3ncccc23)Cc2c3c(nn21)CN(CC(N)=O)[C@@H](C)C3 [Example I-141, 2-((4R,9S)-2-(8-cyanoquinolin-5-yl)-4,9-dimethyl-1,2,3,4,9,10-hexahydropyrido [3',4':3,4]pyrazolo[1,5-a]pyrazin-8(7H)-yl)acetamide] | < 7.30 | < 7.00 | 

Further lines, with some results ahead:

pIC50 (human TLR7; [1]) | pIC50 (human TLR8; [2]) | Structure (SMILES) | other results
> 7.30 | > 7.00 | C[C@@H]1CN(c2ccc(C#N)n3ncc(F)c23)Cc2c3c(nn21)CN(CC(=O)N1CCN(C2CC2)CC1)[C@@H](C)C3 [Example I-136, 4-((4R,9S)-8-(2-(4-cyclopropylpiperazin-1-yl)-2-oxoethyl)-4,9-dimethyl-3,4,7,8,9,10-hexahydropyrido[3',4':3,4]pyrazolo[1,5-a]pyrazin-2(1H)-yl)-3-fluoropyrazolo[1,5-a]pyridine-7-carbonitrile] | 
> 7.30 | > 7.00 | C[C@@H]1CN(c2ccc(C#N)n3ncc(F)c23)Cc2c3c(nn21)CN(Cc1cn[nH]c1)[C@@H](C)C3 [Example I-137, 4-((4R,9S)-8-((1H-pyrazol-4-yl)methyl)-4,9-dimethyl-3,4,7,8,9,10-hexahydropyrido [3',4':3,4]pyrazolo[1,5-a]pyrazin-2(1H)-yl)-3-fluoropyrazolo[1,5-a]pyridine-7-carbonitrile] | 
> 7.30 | < 7.00 | C[C@@H]1CN(c2ccc(C#N)n3ncc(F)c23)Cc2c3c(nn21)CN(CC(=O)N1CCOCC1)[C@@H](C)C3 [Example I-139, 4-((4R,9S)-4,9-dimethyl-8-(2-morpholino-2-oxoethyl)-3,4,7,8,9,10-hexahydropyrido [3',4':3,4]pyrazolo[1,5-a]pyrazin-2(1H)-yl)-3-fluoropyrazolo[1,5-a]pyridine-7-carbonitrile] | 
> 7.30 | < 7.00 | C[C@@H]1CN(c2ccc(C#N)n3ncc(F)c23)Cc2c3c(nn21)CN(CC(=O)N1CC(F)(F)C1)[C@@H](C)C3 [Example I-140, 4-((4R,9S)-8-(2-(3,3-difluoroazetidin-1-yl)-2-oxoethyl)-4,9-dimethyl-3,4,7,8,9,10-hexahydropyrido[3',4':3,4]pyrazolo[1,5-a]pyrazin-2(1H)-yl)-3-fluoropyrazolo[1,5-a]pyridine-7-carbonitrile] | 
> 7.30 | < 7.00 | C[C@@H]1CN(c2ccc(C#N)n3ncc(F)c23)Cc2c3c(nn21)CN(C1CCOC1)[C@@H](C)C3 (stereo partly drawn) [Example I-142, 4-((4R,9S)-4,9-dimethyl-8-(tetrahydrofuran-3-yl)-3,4,7,8,9,10-hexahydropyrido [3',4':3,4]pyrazolo[1,5-a]pyrazin-2(1H)-yl)-3-fluoropyrazolo[1,5-a]pyridine-7-carbonitrile] | 
> 7.30 | < 7.00 | C[C@@H]1CN(c2ccc(C#N)n3ncc(F)c23)Cc2c3c(nn21)CN(CC(=O)N1C[C@H](C)N[C@@H](C)C1)[C@@H](C)C3 [Example I-144, 4-((4R,9S)-8-(2-((3S,5S)-3,5-dimethylpiperazin-1-yl)-2-oxoethyl)-4,9-dimethyl-3,4,7,8,9,10-hexahydropyrido[3',4':3,4]pyrazolo[1,5-a]pyrazin-2(1H)-yl)-3-fluoropyrazolo[1,5-a]pyridine-7-carbonitrile] | 
> 7.30 | < 7.00 | C[C@@H]1CN(C(=O)CN2Cc3nn4c(c3C[C@@H]2C)CN(c2ccc(C#N)n3ncc(F)c23)C[C@H]4C)C[C@@H](C)N1 [Example I-146, 4-((4R,9S)-8-(2-((3R,5R)-3,5-dimethylpiperazin-1-yl)-2-oxoethyl)-4,9-dimethyl-3,4,7,8,9,10-hexahydropyrido[3',4':3,4]pyrazolo[1,5-a]pyrazin-2(1H)-yl)-3-fluoropyrazolo[1,5-a]pyridine-7-carbonitrile] | 
> 7.30 | < 7.00 | C[C@@H]1CN(c2ccc(C#N)n3ncc(F)c23)Cc2c3c(nn21)CN(CC(=O)N1CCCC1)[C@@H](C)C3 [Example I-151, 4-((4R,9S)-4,9-dimethyl-8-(2-oxo-2-(pyrrolidin-1-yl)ethyl)-3,4,7,8,9,10-hexahydropyrido[3',4':3,4]pyrazolo[1,5-a]pyrazin-2(1H)-yl)-3-fluoropyrazolo[1,5-a]pyridine-7-carbonitrile] | 
> 7.30 | < 7.00 | C[C@@H]1CN(c2ccc(C#N)n3ncc(F)c23)Cc2c3c(nn21)CN(CC(=O)N1CCC(F)(F)C1)[C@@H](C)C3 [Example I-152, 4-((4R,9S)-8-(2-(3,3-difluoropyrrolidin-1-yl)-2-oxoethyl)-4,9-dimethyl-3,4,7,8,9,10-hexahydropyrido[3',4':3,4]pyrazolo[1,5-a]pyrazin-2(1H)-yl)-3-fluoropyrazolo[1,5-a]pyridine-7-carbonitrile] | 
